These are literature values, as cited in US20070112050A1, “HMGCoA reductase inhibitor combinations and uses thereof” (pSivida Inc., priority 2005, published 2007).

Like-named read-outs stand apart in the source and are kept apart here.

One data set deals with T1, HMGCoA reductase (HMGR) (Homo sapiens, UniProt P04035).
T1 sequence (P04035 1-888): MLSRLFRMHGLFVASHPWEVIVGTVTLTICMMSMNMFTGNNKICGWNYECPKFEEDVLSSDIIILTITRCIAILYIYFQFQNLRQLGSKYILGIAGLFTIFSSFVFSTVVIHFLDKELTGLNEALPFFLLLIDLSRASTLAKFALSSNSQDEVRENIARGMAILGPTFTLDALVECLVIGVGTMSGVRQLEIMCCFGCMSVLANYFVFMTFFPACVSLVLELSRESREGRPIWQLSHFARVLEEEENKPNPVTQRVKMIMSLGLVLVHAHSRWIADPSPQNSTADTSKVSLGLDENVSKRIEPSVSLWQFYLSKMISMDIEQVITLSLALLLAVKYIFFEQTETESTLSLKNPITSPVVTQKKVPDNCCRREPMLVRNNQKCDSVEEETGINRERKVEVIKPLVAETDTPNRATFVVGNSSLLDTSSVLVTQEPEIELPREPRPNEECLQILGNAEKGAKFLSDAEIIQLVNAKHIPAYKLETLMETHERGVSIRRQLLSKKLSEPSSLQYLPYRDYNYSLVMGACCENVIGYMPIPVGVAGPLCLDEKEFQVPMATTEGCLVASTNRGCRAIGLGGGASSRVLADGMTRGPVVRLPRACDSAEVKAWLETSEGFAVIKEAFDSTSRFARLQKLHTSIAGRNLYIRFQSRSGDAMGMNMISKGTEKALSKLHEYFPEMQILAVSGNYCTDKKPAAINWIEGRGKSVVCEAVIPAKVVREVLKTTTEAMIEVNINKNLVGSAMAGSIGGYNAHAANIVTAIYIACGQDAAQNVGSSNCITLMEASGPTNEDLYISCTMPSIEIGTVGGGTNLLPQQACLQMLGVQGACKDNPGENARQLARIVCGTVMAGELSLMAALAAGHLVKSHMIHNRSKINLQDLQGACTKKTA
As to conditions: substrate of HMGCoA reductase; read-out: Michaelis constant, Km.

Data set [1] concerns low density lipoprotein cholesterol (LDL). The note with it: ezetimibe administered alone.

With `CCOc1nc2cccc(C(=O)O)c2n1Cc1ccc(-c2ccccc2-c2nnn[nH]2)cc1` [Candesartan, candesartan], the Half-life (human, in vivo) was 10 h. In addition, for the setting “in vivo”, the Active metabolite result is on record as “Yes”; the “Major route of inactivation” value is “Liver and renal”. As for `CC(C)(COP(=O)(O)OP(=O)(O)OC[C@H]1O[C@@H](n2cnc3c(N)ncnc32)[C@H](O)[C@@H]1OP(=O)(O)O)[C@@H](O)C(=O)NCCC(=O)NCCSC(=O)C[C@@](C)(O)CC(=O)O` [HMGCoA, (S)-3-hydroxy-3-methylglutaryl-CoA], the Km (as a rule, the substrate concentration at which the rate is half of its maximum) at HMGCoA reductase (HMGR) was 4 µM. For the molecule `CCCCC1=NC2(CCCC2)C(=O)N1Cc1ccc(-c2ccccc2-c2nnn[nH]2)cc1` [Irbesartan, irbesartan], under “human body”, the Active metabolite result is “No” and the Half-life was 13 h. For `CCCCc1nc(Cl)c(CO)n1Cc1ccc(-c2ccccc2-c2nn[nH]n2)cc1` [Losartan, losartan], the Half-life (human body) was 5 h. As to `CCCCC(=O)N(Cc1ccc(-c2ccccc2-c2nnn[nH]2)cc1)[C@H](C(=O)O)C(C)C` [Valsartan, valsartan], the Half-life (human body) is 6 h. As for `O=C1[C@H](CC[C@H](O)c2ccc(F)cc2)[C@@H](c2ccc(O)cc2)N1c1ccc(F)cc1` [ezetimibe], the “reduction of LDL” value in data set [1] was 17%.
